What was measured:
NHE3 [1] = biological target: T1, NHE3 (Homo sapiens, UniProt P48764); experiment: Cell-based assay of NHE-3 activity (pre-incubation inhibition), human; conditions: human Preincubation; for pIC50 / IC50: 0-30 μM test compound
T1 construct: expressed in transfected cells
T1 sequence (P48764 26-834): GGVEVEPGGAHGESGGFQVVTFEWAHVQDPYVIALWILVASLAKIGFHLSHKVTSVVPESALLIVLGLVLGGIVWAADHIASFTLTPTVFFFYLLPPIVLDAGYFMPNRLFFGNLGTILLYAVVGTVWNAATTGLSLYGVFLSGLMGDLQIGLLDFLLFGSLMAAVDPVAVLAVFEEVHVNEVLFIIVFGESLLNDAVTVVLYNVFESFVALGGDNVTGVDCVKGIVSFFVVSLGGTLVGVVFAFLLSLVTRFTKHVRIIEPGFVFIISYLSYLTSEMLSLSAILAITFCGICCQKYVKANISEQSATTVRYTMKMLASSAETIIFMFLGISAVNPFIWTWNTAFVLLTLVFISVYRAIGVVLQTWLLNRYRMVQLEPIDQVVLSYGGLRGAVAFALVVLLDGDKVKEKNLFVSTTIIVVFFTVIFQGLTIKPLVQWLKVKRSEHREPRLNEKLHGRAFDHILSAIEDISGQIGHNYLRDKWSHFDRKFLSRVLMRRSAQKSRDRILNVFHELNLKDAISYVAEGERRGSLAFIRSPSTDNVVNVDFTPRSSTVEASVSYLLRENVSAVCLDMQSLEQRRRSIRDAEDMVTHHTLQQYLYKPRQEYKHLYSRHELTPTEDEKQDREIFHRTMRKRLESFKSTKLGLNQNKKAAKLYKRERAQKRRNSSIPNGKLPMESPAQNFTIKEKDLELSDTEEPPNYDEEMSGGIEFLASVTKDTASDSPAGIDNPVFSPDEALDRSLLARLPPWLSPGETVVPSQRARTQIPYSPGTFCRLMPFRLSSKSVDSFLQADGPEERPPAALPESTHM
T1 sequence (Q99653 2-195 partner limits assumed): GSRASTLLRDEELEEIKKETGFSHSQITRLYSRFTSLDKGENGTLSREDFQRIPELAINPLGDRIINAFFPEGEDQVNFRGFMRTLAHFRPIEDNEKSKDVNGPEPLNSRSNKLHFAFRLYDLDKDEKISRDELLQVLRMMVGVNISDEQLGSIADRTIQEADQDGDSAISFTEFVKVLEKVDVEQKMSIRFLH
In short: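 Activity read as initial rate of BCECF fluorescence ratio change per minute (ex 439/505, em 538 nm) following NH4Cl prepulse acid loading. Compound (0–30 μM) present during 10 min Na+-free acidification at room temperature; cells were PS120 fibroblasts stably co-expressing human NHE3 and NHERF2.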

NHE3 [2] = biological target: T1, NHE3; experiment: Cell-based assay of NHE-3 activity (persistent inhibition), human; conditions: human Persistence, 60 min incubation then washout
In short: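 Persistent inhibition: compound (0-30 μM, 60 min, RT, NaCl-HEPES pH 7.4) removed before assay. Human NHE3/NHERF2 PS120 cells were then BCECF-loaded during NH4Cl pulse (30 min, 37 °C), acidified in Na+-free buffer, and Na+ added 10 min after washout; antiport measured as initial fluorescence-ratio change per minute.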

% inhibition (NHE3 [1]) | pIC50 (NHE3 [1]) | % inhibition (NHE3 [2]) | pIC50 (NHE3 [2]) | IC50 (NHE3 [1]) [nM] | IC50 (NHE3 [2]) [nM] | SMILES
A (NHE3 < 40%) | A (NHE3 pIC50 < 6) | A (NHE3 < 40%) | A (NHE3 pIC50 < 6) | – | – | N#Cc1cc(Cl)cc2c1C[C@H](N1CCC[C@@H](N)C1)[C@H]2Oc1ccc(S(=O)(=O)NCCOCCOCCNC(=O)NCCCCNC(=O)NCCOCCOCCNS(=O)(=O)c2ccc(O[C@H]3c4cc(Cl)cc(C#N)c4C[C@@H]3N3CCC[C@@H](N)C3)c(F)c2)cc1F [Example 38]
A (NHE3 < 40%) | C (NHE3 pIC50 > 7) | A (NHE3 < 40%) | C (NHE3 pIC50 > 7) | – | – | Cc1cc(S(=O)(=O)NCCOCCOCCNC(=O)NCCCCNC(=O)NCCOCCOCCNS(=O)(=O)c2ccc(O[C@H]3c4cc(Cl)cc(C#N)c4C[C@@H]3N3CCC[C@@H](N(C)C)C3)c(C)c2)ccc1O[C@H]1c2cc(Cl)cc(C#N)c2C[C@@H]1N1CCC[C@@H](N(C)C)C1 [Example 39]
A (NHE3 < 40%) | – | A (NHE3 < 40%) | – | – | – | CN(C)[C@@H]1CCCN([C@H]2Cc3c(C#N)cc(Cl)cc3[C@@H]2Oc2ccc(S(=O)(=O)NCCOCCOCCNC(=O)NCCCCNC(=O)NCCOCCOCCNS(=O)(=O)c3ccc(O[C@H]4c5cc(Cl)cc(C#N)c5C[C@@H]4N4CCC[C@@H](N(C)C)C4)c(F)c3)cc2F)C1 [Example 40, 3-[2-(2-[2-[(4-[[(1S,2S)-6-Chloro-4-cyano-2-[(3R)-3-(dimethylamino)piperidin-1-yl]-2,3-dihydro-1H-inden-1-yl]oxy]-3-fluorobenzene)sulfonamido]ethoxy]ethoxy)ethyl]-1-[4-([[2-(2-[2-[(4-[[(1S,2S)-6-chloro-4-cyano-2-[(3R)-3-(dimethylamino)piperidin-1-yl]-2,3-dihydro-1H-inden-1-yl]oxy]-3-fluorobenzene)sulfonamido]ethoxy]ethoxy)ethyl]carbamoyl]amino)butyl]urea; bis(trifluoroacetic acid)]
C (>70%) | C (NHE3 pIC50 > 7) | C (>70%) | B (NHE3 pIC50 6-7) | – | – | Cc1cc(S(=O)(=O)N2CC[C@H](COCCOCCNC(=O)NCCCCNC(=O)NCCOCCOC[C@H]3CCN(S(=O)(=O)c4ccc(O[C@H]5c6cc(Cl)cc(Cl)c6C[C@@H]5N(C)C)c(C)c4)C3)C2)ccc1O[C@H]1c2cc(Cl)cc(Cl)c2C[C@@H]1N(C)C [Example 44, 3-[2-(2-[[(3S)-1-[(4-[[(1S,2S)-4,6-dichloro-2-(dimethylamino)-2,3-dihydro-1H-inden-1-yl]oxy]-3-methylbenzene)sulfonyl]pyrrolidin-3-yl]methoxy]ethoxy)ethyl]-1-[4-([[2-(2-[[(3S)-1-[(4-[[(1S,2S)-4,6-dichloro-2-(dimethylamino)-2,3-dihydro-1H-inden-1-yl]oxy]-3-methylbenzene)sulfonyl]pyrrolidin-3-yl]methoxy]ethoxy)ethyl]carbamoyl]amino)butyl]urea; bis(trifluoroacetic acid)]
C (>70%) | – | C (>70%) | – | < 100 | < 100 | Cc1cc(S(=O)(=O)N2CC[C@H](COCCOCCNC(=O)NCCCCNC(=O)NCCOCCOC[C@H]3CCN(S(=O)(=O)c4ccc(O[C@H]5c6cc(Cl)cc(C#N)c6C[C@@H]5N(C)C)c(C)c4)C3)C2)ccc1O[C@H]1c2cc(Cl)cc(C#N)c2C[C@@H]1N(C)C [Example 46, 3-[2-(2-[[(3S)-1-[(4-[[(1S,2S)-6-Chloro-4-cyano-2-(dimethylamino)-2,3-dihydro-1H-inden-1-yl]oxy]-3-methylbenzene)sulfonyl]pyrrolidin-3-yl]methoxy]ethoxy)ethyl]-1-[4-([[2-(2-[[(3S)-1-[(4-[[(1S,2S)-6-chloro-4-cyano-2-(dimethylamino)-2,3-dihydro-1H-inden-1-yl]oxy]-3-methylbenzene)sulfonyl]pyrrolidin-3-yl]methoxy]ethoxy)ethyl]carbamoyl]amino)butyl]urea; bis(trifluoroacetic acid)]
C (>70%) | – | C (>70%) | – | – | – | Cc1cc(S(=O)(=O)N2CC[C@@H](COCCOCCNC(=O)NCCCCNC(=O)NCCOCCOC[C@@H]3CCN(S(=O)(=O)c4ccc(O[C@H]5c6cc(Cl)cc(C#N)c6C[C@@H]5N(C)C)c(C)c4)C3)C2)ccc1O[C@H]1c2cc(Cl)cc(C#N)c2C[C@@H]1N(C)C [Example 47]
B (40-70%) | – | C (>70%) | – | 100 to 1000 | 100 to 1000 | Cc1cc(S(=O)(=O)N2CC[C@H](COc3ccnc(CNC(=O)NCCCCNC(=O)NCc4cc(OC[C@H]5CCN(S(=O)(=O)c6ccc(O[C@H]7c8cc(Cl)cc(Cl)c8C[C@@H]7N(C)C)c(C)c6)C5)ccn4)c3)C2)ccc1O[C@H]1c2cc(Cl)cc(Cl)c2C[C@@H]1N(C)C [Example 48, 3-[(4-[[(3S)-1-[(4-[[(1S,2S)-4,6-Dichloro-2-(dimethylamino)-2,3-dihydro-1H-inden-1-yl]oxy]-3-methylbenzene)sulfonyl]pyrrolidin-3-yl]methoxy]pyridin-2-yl)methyl]-1-[4-([[(4-[[(3S)-1-[(4-[[(1S,2S)-4,6-dichloro-2-(dimethylamino)-2,3-dihydro-1H-inden-1-yl]oxy]-3-methylbenzene)sulfonyl]pyrrolidin-3-yl]methoxy]pyridin-2-yl)methyl]carbamoyl]amino)butyl]urea]
B (40-70%) | C (NHE3 pIC50 > 7) | B (40-70%) | C (NHE3 pIC50 > 7) | – | – | Cc1cc(S(=O)(=O)N2CC[C@H](COc3ccnc(CNC(=O)NCCCCNC(=O)NCc4cc(OC[C@H]5CCN(S(=O)(=O)c6ccc(O[C@H]7c8cc(Cl)cc(C#N)c8C[C@@H]7N(C)C)c(C)c6)C5)ccn4)c3)C2)ccc1O[C@H]1c2cc(Cl)cc(C#N)c2C[C@@H]1N(C)C [Example 50]
B (40-70%) | C (NHE3 pIC50 > 7) | B (40-70%) | C (NHE3 pIC50 > 7) | – | – | Cc1cc(S(=O)(=O)N2CC[C@@H](COc3ccnc(CNC(=O)NCCCCNC(=O)NCc4cc(OC[C@@H]5CCN(S(=O)(=O)c6ccc(O[C@H]7c8cc(Cl)cc(C#N)c8C[C@@H]7N(C)C)c(C)c6)C5)ccn4)c3)C2)ccc1O[C@H]1c2cc(Cl)cc(C#N)c2C[C@@H]1N(C)C [Example 51, 3-[(4-[[(3R)-1-[(4-[[(1S,2S)-6-Chloro-4-cyano-2-(dimethylamino)-2,3-dihydro-1H-inden-1-yl]oxy]-3-methylbenzene)sulfonyl]pyrrolidin-3-yl]methoxy]pyridin-2-yl)methyl]-1-[4-([[(4-[[(3R)-1-[(4-[[(1S,2S)-6-chloro-4-cyano-2-(dimethylamino)-2,3-dihydro-1H-inden-1-yl]oxy]-3-methylbenzene)sulfonyl]pyrrolidin-3-yl]methoxy]pyridin-2-yl)methyl]carbamoyl]amino)butyl]urea]
C (>70%) | – | B (40-70%) | – | < 100 | < 100 | Cc1cc(S(=O)(=O)N[C@H]2CCN(CCOCCNC(=O)NCCCCNC(=O)NCCOCCN3CC[C@H](NS(=O)(=O)c4ccc(O[C@H]5c6cc(Cl)cc(C#N)c6C[C@@H]5N(C)C)c(C)c4)C3)C2)ccc1O[C@H]1c2cc(Cl)cc(C#N)c2C[C@@H]1N(C)C [Example 54, 3-(2-[2-[(3S)-3-[(4-[[(1S,2S)-6-Chloro-4-cyano-2-(dimethylamino)-2,3-dihydro-1H-inden-1-yl]oxy]-3-methylbenzene)sulfonamido]pyrrolidin-1-yl]ethoxy]ethyl)-1-(4-[[(2-[2-[(3S)-3-[(4-[[(1S,2S)-6-chloro-4-cyano-2-(dimethylamino)-2,3-dihydro-1H-inden-1-yl]oxy]-3-methylbenzene)sulfonamido]pyrrolidin-1-yl]ethoxy]ethyl)carbamoyl]amino]butyl)urea]

— patent publication US11242337B2, “Compounds useful for treating gastrointestinal tract disorders” (Ardelyx, Inc., priority 2017, dated 2022)
